# Data taken from US9187726B2, “Culturing a microorganism in a medium with an elevated level of a carboxylate counterion source” (ExxonMobil Research and Engineering Company, priority 2010, dated 2015).
# What was measured:
# [1] = test system: SGI-004 Synechococcus strain; test: Tolerance to free fatty acids in media with increased calcium and magnesium; format: cell-based; settings: for effect on free fatty acid tolerance / viability: added to 2X and 4X of standard BG-11
# Experimental: (§1) The Synechocystis sp. PCC 6803 strain and the SGI-004 Synechococcus strain were both tested to see if calcium and/or magnesium could alleviate the toxic effects of free fatty acid in the media. BG-11 media was used to culture the cells in multiwall plates. Calcium (CaCl2) and magnesium (MgCl2) were added alone and in combination to achieve a concentration two-fold (2×) and four-fold (4×) that of standard BG-11 media. […] PCC 6803. (Table 3). […] At a concentration double that of the BG-11 recipe (approximately 0.5 mM), calcium added a tolerance of up to about 100 mg/L more of free fatty acid for both of the strains.
# [2] = test system: Synechocystis sp. PCC 6803; test: as above; format: cell-based; settings: for effect on free fatty acid tolerance: added to 2X and 4X of standard BG-11
# Experimental: as §1
# [3] = test system: Synechocystis sp. PCC 6803; test: Growth in calcium-enhanced media up to about one hundred times BG-11 calcium; format: cell-based; settings: calcium up to about one hundred times standard BG-11 (up to ~25 mM)
# Experimental: For large-scale production of fatty acids, calcium (and/or magnesium) supplementation would allow for fatty acids to accumulate during a production phase to be harvested one or more times in a non-continuous mode. Calcium concentrations up to about one hundred times the concentration of calcium in standard BG-11 medium (that is, up to ˜25 mM) have been tested on Synechocystis sp.
# [4] = test system: PH-SGI-E-0159; test: Long-term effect of calcium addition on fatty acid-producing strain, one copy Cc1FatB1; format: cell-based, Synechocystis sp. PCC 6803; settings: with or without extra calcium addition
# Description: (§2) FIG. 2 provides data on the growth of genetically modified cyanobacterial strains producing free fatty acids in calcium-supplemented media. FIG. 2a is a graph showing the post-IPTG induction growth of cultures (as measure by OD at 730 nm) of Synechocystis PCC 6803 transformed with one (PH-SGI-E-0159-1; “159”) or three (PH-SGI-E-0166-1; “166”) copies of the Cc1FatB1 Cuphea carthagenensis acyl-ACP thioesterase (diamonds, strain 159 in standard BG-11 media; squares, strain 159 in standard BG-11 media supplemented to 10-fold the amount of calcium of BG-11 (˜2.5 mM); triangles, cyanobacterial strain 166 in standard BG-11 media; circles, strain 166 in standard BG-11 media supplemented to 10-fold the amount of calcium of BG-11 (˜2.5 mM)). FIG. 2b is a graph showing the post-IPTG induction free fatty acid production in mg/L of cultures of Synechocystis strains transformed with one (PH-SGI-E-0159-1; “159”) or three (PH-SGI-E-0166-1; “166”) copies of the Cc1FatB1 Cuphea carthagenensis acyl-ACP thioesterase (diamonds, strain 159 in standard BG-11 media; squares, strain 159 in standard BG-11 media supplemented to 10-fold the amount of calcium of BG-11 (˜2.5 mM); triangles, cyanobacterial strain 166 in standard BG-11 media; circles, strain 166 in standard BG-11 media supplemented to 10-fold the amount of calcium of BG-11 (˜2.5 mM)). […]
# [5] = test system: PH-SGI-E-0166; test: Long-term effect of calcium addition on fatty acid-producing strain, three copies Cc1FatB1; format: cell-based, Synechocystis sp. PCC 6803; settings: ~10× calcium concentration; culture without extra calcium completely bleached after ~12 days of IPTG induction
# Description: as §2
# [6] = calcium at double the BG-11 recipe (approximately 0.5 mM)
SMILES,effect on free fatty acid tolerance / viability [1],"added tolerance, more free fatty acid tolerated [1, 6]",effect on free fatty acid tolerance [2],"added tolerance, more free fatty acid tolerated [2, 6]",growth defects in calcium-enhanced media [3],time cultures continued to grow and stayed green [4],culture survival [5]
"[Ca+2].[Cl-].[Cl-] [calcium, calcium chloride]",increased free fatty acid tolerance,up to 100 mg/L,increased free fatty tolerance,up to 100 mg/L,no growth defects,at least 31 days,survived
"[Cl-].[Cl-].[Mg+2] [magnesium, MgCl2]",no discernible protective effect,,increased free fatty tolerance,,,,
